Publication PMC9743428 (ACS Medicinal Chemistry Letters, 2022)
Blank lines part the entries; values can stand above or below the compound they belong to.

Assays:
FFAR1 = FFAR1 (Homo sapiens, UniProt O14842); assay: IP accumulation assay in transiently transfected COS7 cells, FFAR1; format: cell-based; settings: for reduction of potency on FFAR1 / improved potency on FFAR1: range for the group; for improved potency on FFAR1: as compared to the unsubstituted phenyl 54
FFAR4 = target: T1, FFAR4 (Homo sapiens, UniProt Q5NUL3); assay: IP accumulation assay in transiently transfected COS7 cells, FFAR4; format: cell-based
T1 sequence (Q5NUL3 1-361): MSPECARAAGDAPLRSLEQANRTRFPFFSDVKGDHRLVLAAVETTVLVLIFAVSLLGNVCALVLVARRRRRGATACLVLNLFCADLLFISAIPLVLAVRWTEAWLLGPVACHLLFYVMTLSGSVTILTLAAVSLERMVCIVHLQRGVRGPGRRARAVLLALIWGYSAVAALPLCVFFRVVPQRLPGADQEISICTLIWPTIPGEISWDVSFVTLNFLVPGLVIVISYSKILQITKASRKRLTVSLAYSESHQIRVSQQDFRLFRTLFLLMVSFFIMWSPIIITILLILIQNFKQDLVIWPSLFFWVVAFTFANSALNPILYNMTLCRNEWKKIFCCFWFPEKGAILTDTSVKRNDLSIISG

[1] = tested on: FFAR1 mutants (Y12, E65, A66, K259, L262); assay: Mutagenesis of the extracellular binding site, IP accumulation; format: cell-based, human
FFAR1 K259A = assay: Mutagenesis, IP accumulation, FFAR1 K259A mutant; format: cell-based, human
FFAR1 A83F = FFAR1 A83F (Homo sapiens, UniProt O14842, A83F); assay: Mutagenesis, IP accumulation, FFAR1 A83F mutant; format: cell-based
Chain of FFAR1 A83F (O14842 whole entry A83F): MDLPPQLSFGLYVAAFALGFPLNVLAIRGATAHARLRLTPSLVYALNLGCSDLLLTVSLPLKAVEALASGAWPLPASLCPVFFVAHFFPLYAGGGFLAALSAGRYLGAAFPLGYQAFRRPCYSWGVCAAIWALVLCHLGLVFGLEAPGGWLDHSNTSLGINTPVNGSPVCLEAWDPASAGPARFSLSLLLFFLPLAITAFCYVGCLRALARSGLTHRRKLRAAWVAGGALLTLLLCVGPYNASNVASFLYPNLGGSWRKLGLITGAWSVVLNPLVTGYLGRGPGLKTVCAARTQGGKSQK

Chain of FFAR1 (O14842 whole entry): as the sequence (O14842 whole entry A83F) above, with F83A counted along it

SMILES: Cc1cc(=O)oc2cc(OCc3nc(N)nc(Nc4ccc(O)cc4)n3)ccc12 [compound 18]
- activity on FFAR1 (FFAR1): inactive

SMILES: Cc1ccc(Nc2nc(N)nc(COc3cc(N4CCCC4=O)cc(C(F)(F)F)c3)n2)cc1Cl [compound 38]
- selectivity for FFAR1 over FFAR4 (FFAR1): selective

SMILES: Cc1cc(OCc2nc(N)nc(NCCc3cccc(Cl)c3)n2)cc(N2CCCC2=O)c1 [compound 58]
- improved potency on FFAR1 (FFAR1): 2–8 fold

SMILES: Cc1cccc(CCNc2nc(N)nc(COc3cc(C)cc(N4CCCC4=O)c3)n2)c1 [compound 59]
- improved potency on FFAR1 (FFAR1): 2–8 fold

SMILES: Cc1cc(=O)oc2cc(OCc3nc(N)nc(Nc4ccc(C5CC5)cc4)n3)ccc12 [compound 7]
- activity on FFAR4 (FFAR4): entirely inactive on FFAR4

SMILES: Cc1ccc(Nc2nc(N)nc(COc3cc(Cl)cc(N4CCCC4=O)c3)n2)cc1Cl [compound 42]
- gain of potency on FFAR1 (FFAR1; versus compound 28): 5 fold

SMILES: COc1ccc(F)c(-c2ccc(COc3ccc4c(c3)[C@]3(CC4)C[C@H]3C(=O)O)cc2[C@@H]2CCCC2(C)C)c1 [AM-5262]
- effect of extracellular-site mutations on activity [1]: no effect on compound potency
- change in efficacy, K259A versus wild-type (FFAR1 K259A): −32%
- impact of A83F mutation on activity (FFAR1 A83F): none

SMILES: Cc1ccc(Nc2nc(N)nc(COc3cc(OC(F)(F)F)cc(N4CCCC4=O)c3)n2)cc1Cl [compound 46]
- selectivity for FFAR4 over FFAR1 (FFAR4): selective

SMILES: Cc1cc(=O)oc2cc(OCc3nc(N)nc(Nc4cccc(O)c4)n3)ccc12 [compound 17]
- activity on FFAR1 (FFAR1): inactive

SMILES: Cc1ccc(Nc2nc(N)nc(COc3ccc4c(C)cc(=O)oc4c3)n2)cc1C [compound 13]
- activity on FFAR4 (FFAR4): entirely inactive on FFAR4

SMILES: Cc1cc(OCc2nc(N)nc(NCCc3cc(Cl)ccc3Cl)n2)cc(N2CCCC2=O)c1 [compound 83]
- effect of extracellular-site mutations on activity [1]: profound effect

SMILES: Cc1cc(OCc2nc(N)nc(NCCc3ccccc3)n2)cc(N2CCCC2=O)c1 [compound 54]
- increase of efficacy on FFAR1 (FFAR1; as compared to compound 43): 44%

SMILES: Cc1ccc(Nc2nc(N)nc(COc3cccc(N4CCCC4=O)c3)n2)cc1Cl [compound 28]
- loss of potency on FFAR1 (FFAR1; versus 4-methylchroman-2-one compound 11): ~6 fold

Results, then the compound that gave them:

- selectivity for FFAR1 over FFAR4 (FFAR1): highly FFAR1-selective
SMILES: Cc1cc(OCc2nc(N)nc(NCCc3cccc4c3OC(F)(F)O4)n2)cc(N2CCCC2=O)c1 [compound 101]

- reduction of potency on FFAR1 (FFAR1; versus compound 54): 2−3 fold
SMILES: Cc1cc(OCc2nc(N)nc(NCCc3ccc(Cl)cc3Cl)n2)cc(N2CCCC2=O)c1 [compound 84]

- selectivity for FFAR1 over FFAR4 (FFAR1): highly selective for FFAR1
SMILES: Cc1cc(OCc2nc(N)nc(NCCc3ccccc3F)n2)cc(N2CCCC2=O)c1 [compound 70]

- improved potency on FFAR1 (FFAR1): 2–8 fold
SMILES: Cc1cc(OCc2nc(N)nc(NCCc3cccc(OC(F)F)c3)n2)cc(N2CCCC2=O)c1 [compound 62]

- activity on FFAR4 (FFAR4): loss of activity on FFAR4
SMILES: Cc1cc(OCc2nc(N)nc(NCC3(c4cccc(Cl)c4)CC3)n2)cc(N2CCCC2=O)c1 [compound 90]

- improved potency on FFAR1 (FFAR1): 2–8 fold
SMILES: Cc1cc(OCc2nc(N)nc(NCCc3cccc(C(F)(F)F)c3)n2)cc(N2CCCC2=O)c1 [compound 61]

- loss of efficacy on FFAR1 (FFAR1; versus compound 54): −26%
SMILES: Cc1cc(OCc2nc(N)nc(NCCc3cc(F)ccc3F)n2)cc(N2CCCC2=O)c1 [compound 75]

- selectivity for FFAR1 over FFAR4 (FFAR1): highly selective for FFAR1
SMILES: Cc1cc(OCc2nc(N)nc(NCCc3cc(C)ccc3F)n2)cc(N2CCCC2=O)c1 [compound 76]

- activity on FFAR4 (FFAR4): loss of activity on FFAR4
SMILES: Cc1cc(OCc2nc(N)nc(NC3(Cc4cccc(Cl)c4)CC3)n2)cc(N2CCCC2=O)c1 [compound 92]

- activity on FFAR4 (FFAR4): loss of activity on FFAR4
SMILES: Cc1cc(OCc2nc(N)nc(NCC(c3c(F)cccc3F)N(C)C)n2)cc(N2CCCC2=O)c1 (centres unmarked) [compound 93]

- selectivity for FFAR4 over FFAR1 (FFAR4): FFAR4-selective
- activity on FFAR1 (FFAR1): entirely inactive
SMILES: Cc1cc(OCc2nc(N)nc(NCCc3ccccc3N3CCOCC3)n2)cc(N2CCCC2=O)c1 [compound 74]

- reduction of potency on FFAR1 (FFAR1; versus compound 54): 2−3 fold
SMILES: Cc1cc(OCc2nc(N)nc(NCCc3ccc(C)cc3C)n2)cc(N2CCCC2=O)c1 [compound 85]

- reduction of potency on FFAR1 (FFAR1; versus compound 54): 2−3 fold
SMILES: Cc1cc(OCc2nc(N)nc(NCCc3c(C)cccc3C)n2)cc(N2CCCC2=O)c1 [compound 87]

- reduction of potency on FFAR1 (FFAR1; versus compound 54): 2−3 fold
SMILES: COc1ccc(Cl)cc1CCNc1nc(N)nc(COc2cc(C)cc(N3CCCC3=O)c2)n1 [compound 86]

- activity on FFAR4 (FFAR4): loss of activity on FFAR4
SMILES: Cc1cc(OCc2nc(N)nc(NCC(c3cccc(Cl)c3)N3CCCC3)n2)cc(N2CCCC2=O)c1 (centres unmarked) [compound 94]

- improved potency on FFAR1 (FFAR1): 2–8 fold
SMILES: COc1cccc(CCNc2nc(N)nc(COc3cc(C)cc(N4CCCC4=O)c3)n2)c1 [compound 60]
